These are literature values, as cited in publication PMC9516332 (Frontiers in Oncology, 2022).

The structures appear in SMILES notation.

Data set [1] concerns the target panel of 255 wild-type kinases (Homo sapiens, UniProt Q13557). The settings on record: CaMK2δ kinase assay; 1 µmol/L single concentration; ref DOI: 10.1371/journal.pone.0092146; cited from earlier work.
Data set [2] concerns the target panel of 255 wild-type kinases (Homo sapiens, UniProt P19525). The settings on record: kinase PKR; 1 µmol/L single concentration; ref DOI: 10.1371/journal.pone.0092146; cited from earlier work.
Data set [3] concerns the target panel of 255 wild-type kinases (Homo sapiens, UniProt O75116). The settings on record: kinase ROCK2; 1 µmol/L single concentration; ref DOI: 10.1371/journal.pone.0092146; cited from earlier work.
In data set [4] the target is panel of 255 wild-type kinases (Homo sapiens, UniProt P04629). The settings on record: kinase TRKA; 1 µmol/L single concentration; ref DOI: 10.1371/journal.pone.0092146; cited from earlier work.
The target in data set [5] is panel of 255 wild-type kinases (Homo sapiens, UniProt Q9UM73). The settings on record: ALK kinase assay; 1 µmol/L single concentration; ref DOI: 10.1371/journal.pone.0092146; cited from earlier work.
Data set [6] deals with panel of 255 wild-type kinases (Homo sapiens, UniProt P49841). To be noted: kinase GSK3β; 1 µmol/L single concentration; ref DOI: 10.1371/journal.pone.0092146; cited from earlier work.
The target in data set [7] is panel of 255 wild-type kinases (Homo sapiens, UniProt Q00534). To be noted: CDK6/CycD3 kinase assay; 1 µmol/L single concentration; ref DOI: 10.1371/journal.pone.0092146; cited from earlier work.
Data set [8] addresses T1, panel of 255 wild-type kinases (Homo sapiens, UniProt Q08881).
T1 sequence (Q08881 1-620): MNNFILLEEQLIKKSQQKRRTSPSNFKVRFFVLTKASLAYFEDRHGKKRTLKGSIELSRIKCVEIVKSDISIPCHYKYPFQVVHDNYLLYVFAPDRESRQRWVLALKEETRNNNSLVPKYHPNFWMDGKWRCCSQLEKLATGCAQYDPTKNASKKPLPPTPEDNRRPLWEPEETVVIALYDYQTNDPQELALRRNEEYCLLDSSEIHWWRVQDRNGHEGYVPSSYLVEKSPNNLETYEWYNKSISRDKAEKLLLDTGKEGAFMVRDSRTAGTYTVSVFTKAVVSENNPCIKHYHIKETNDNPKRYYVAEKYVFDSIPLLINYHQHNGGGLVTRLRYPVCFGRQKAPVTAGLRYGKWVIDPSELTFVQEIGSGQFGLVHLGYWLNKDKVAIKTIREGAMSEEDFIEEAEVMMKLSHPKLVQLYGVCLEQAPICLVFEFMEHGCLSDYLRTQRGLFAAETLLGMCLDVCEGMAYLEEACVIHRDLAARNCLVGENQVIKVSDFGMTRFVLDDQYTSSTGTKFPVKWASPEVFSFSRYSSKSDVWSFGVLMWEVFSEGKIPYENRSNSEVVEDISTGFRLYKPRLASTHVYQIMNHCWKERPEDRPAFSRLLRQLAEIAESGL
The settings on record: kinase ITK; 1 µmol/L single concentration; ref DOI: 10.1371/journal.pone.0092146; cited from earlier work.

Data set [9] addresses panel of 255 wild-type kinases (Homo sapiens, UniProt P22612). To be noted: kinase PKACγ; 1 µmol/L single concentration; ref DOI: 10.1371/journal.pone.0092146; cited from earlier work.
The target of data set [10] is panel of 255 wild-type kinases (Homo sapiens, UniProt P22607). To be noted: kinase FGFR3; 1 µmol/L single concentration; ref DOI: 10.1371/journal.pone.0092146; cited from earlier work.
In data set [11] the target is panel of 255 wild-type kinases (Homo sapiens, UniProt P43405). To be noted: kinase SYK; 1 µmol/L single concentration; ref DOI: 10.1371/journal.pone.0092146; cited from earlier work.
Data set [12] deals with panel of 255 wild-type kinases (Homo sapiens, UniProt Q13555). The settings on record: CaMK2γ kinase assay; 1 µmol/L single concentration; ref DOI: 10.1371/journal.pone.0092146; cited from earlier work.
Data set [13] concerns the target panel of 255 wild-type kinases (Homo sapiens, UniProt P54646). The settings on record: AMPKα2/β1/γ1 kinase assay; 1 µmol/L single concentration; ref DOI: 10.1371/journal.pone.0092146; cited from earlier work.
Data set [14] addresses panel of 255 wild-type kinases (Homo sapiens, UniProt Q14289). To be noted: kinase PYK2; 1 µmol/L single concentration; ref DOI: 10.1371/journal.pone.0092146; cited from earlier work.
Data set [15] concerns the target panel of 255 wild-type kinases (Homo sapiens, UniProt Q16539). The settings on record: p38α; 1 µmol/L single concentration; ref DOI: 10.1371/journal.pone.0092146; cited from earlier work.
In data set [16] the target is panel of 255 wild-type kinases (Homo sapiens, UniProt O75676). The settings on record: MSK2; 1 µmol/L single concentration; ref DOI: 10.1371/journal.pone.0092146; cited from earlier work.
Data set [17] concerns panel of 255 wild-type kinases. To be noted: 1 µmol/L single concentration, ref DOI: 10.1371/journal.pone.0092146, cited from earlier work.
Data set [18] addresses panel of 255 wild-type kinases (Homo sapiens, UniProt P11309). To be noted: kinase PIM1; 1 µmol/L single concentration; ref DOI: 10.1371/journal.pone.0092146; cited from earlier work.

With `CCCS(=O)(=O)Nc1ccc(F)c(C(=O)c2c[nH]c3ncc(-c4ccc(Cl)cc4)cc23)c1F` [vemurafenib], the “%-inhibition CaMK2δ” value in [1] was -0.235%. Further, the “%-inhibition at 1 µmol/L, PKR” value in [2] is -0.765%. For the same compound, the “%-inhibition at 1 µmol/L, ROCK2” value in data set [3] is on record as -0.177%. In addition, the “%-inhibition at 1 µmol/L, TRKA” value in data set [4] is given as 16%. Also, the “%-inhibition ALK” value in data set [5] is given as 1.14%. In data set [6], the “%-inhibition at 1 µmol/L, GSK3β” value was 8%. In addition, in data set [7], the “%-inhibition CDK6/CycD3” value is given as 2.43%. Besides, the “%-inhibition at 1 µmol/L, ITK” value in data set [8] is 3%. Also, the “%-inhibition at 1 µmol/L, PKACγ” value in data set [9] is given as -3%. In data set [10], the “%-inhibition at 1 µmol/L, FGFR3” value is recorded as 15%. Besides, the “%-inhibition at 1 µmol/L, SYK” value in data set [11] is listed as -3.77%. Also, in [12], the “%-inhibition CaMK2γ” value is -10%. Besides, in data set [13], the “%-inhibition AMPKα2/β1/γ1” value is recorded as 6.49%. The “%-inhibition at 1 µmol/L, PYK2” value in [14] was 0.921%. For the same compound, the “%-inhibition, p38α” value in data set [15] is 10%. The “%-inhibition, MSK2” value in [16] was -1%. Moreover, the “%-inhibition at 1 µmol/L, LYNb” value in data set [17] (kinase LYNb) is reported as 62%. Further, the “%-inhibition at 1 µmol/L, PKCβ2” value in data set [17] (kinase PKCβ2) is -3%. For the same compound, the “%-inhibition at 1 µmol/L, SRM” value in [17] (kinase SRM) is reported as 102%. In addition, the “%-inhibition at 1 µmol/L, PIM1” value in data set [18] is -3.41%.
